According to US4697022A, “Process for the preparation of optically-active carbazole derivatives, new R- and S-carbazole derivatives and pharmaceutical compositions containing these compounds” (Boehringer Mannheim GmbH, priority 1983, dated 1987):

Columns and labels:
[1] = test system: isoprenaline tachycardia; assay: β-blocking action: inhibition of isoprenaline tachycardia in awake rabbits; assay type: in vivo, rabbit; details: for ED50: Oryctolagus cuniculus, iv, 50% inhibiting dosage, isoprenaline tachycardia, purity >99.4%, read-out: β-blockade ED50%; for β-blocking properties: in words
[2] = test system: blood vessels (blood pressure); assay: vasodilation: direct blood pressure lowering after a single i.v. administration in awake spontaneously hypertonic rats (SHR); assay type: in vivo, rat (spontaneously hypertonic; details: for ED (30 mmHg): Rattus norvegicus, iv, dosage for lowering of blood pressure by 30 mm.Hg, awake SHR, single i.v. administration, purity >99.4%
Experimental: (measured as direct blood pressure lowering after a single administration)
In awake, spontaneously hypertonic rats (SHR), catheters were implanted in the arteria femoralis and the vena jugularis. Via the veins, there were injected appropriate dosages of the enantiomers (R-carvedilol and S-carvedilol in dosages of 0.03; 0.1; 0.3; 1.0 and 3 mg/kg. i.v.) and the arterial blood pressure lowering was determined via the arterial pressure catheter (as an expression of the vasodilation). As a measure of the antihypertensive effect, there were calculated the dosages for lowering of the blood pressure by 30 mm.Hg.

Compound: COc1ccccc1OCCNC[C@H](O)COc1cccc2[nH]c3ccccc3c12 [S-carvedilol, S-(-)-(1-Carbazol-4-yloxy)-3-[2-(2-methoxyphenoxy)]ethylaminopropan-2-ol]
- ED50 ([1]; awake rabbits, i.v.): 0.025 mg/kg
- β-blocking properties [1]: practically only S-carvedilol can be regarded as being a β-blocker
- β-blocking properties ([1]; listed as Example 8): displays β-blocking properties
- ED (30 mmHg) [2]: 0.27 mg/kg
- dosage for blood pressure lowering of 30 mm.Hg in comparison to β-blockade (times higher) ([2]; S-carvedilol, ED-30mmHg vs β-blockade ED50%): about 10 times

Compound: COc1ccccc1OCCNC[C@@H](O)COc1cccc2[nH]c3ccccc3c12 [R-carvedilol, R-(+)-(1-Carbazol-4-yloxy)-3-[2-(2-methoxyphenoxy)]ethylaminopropan-2-ol]
- ED50 ([1]; awake rabbits, i.v.): 3.98 mg/kg
- β-blockade: difference factor of the dosages of R- and S-carvedilol ([1]; ratio of ED50% R-carvedilol to S-carvedilol, i.v., awake rabbits): 160
- ED (30 mmHg) [2]: 2.96 mg/kg
- vasodilation: difference factor of the dosages of R- and S-carvedilol ([2]; ratio of ED-30mmHg R-carvedilol to S-carvedilol, i.v., SHR): 11
